Test results as given in ChEMBL document CHEMBL4699654, “Computational Fragment-Based Design Facilitates Discovery of Potent and Selective Monoamine Oxidase-B (MAO-B) Inhibitor” (J Med Chem, 2020).

Assays:
[1] = molecular target: T1, Amine oxidase [flavin-containing] A (Homo sapiens, UniProt P21397); assay: Inhibition of recombinant human MAO-A expressed in Sf9 cells using p-tyramine as substrate preincubated for 15 mins followed by substrate addition for 60 mins by […] assay
T1 sequence (P21397 whole entry): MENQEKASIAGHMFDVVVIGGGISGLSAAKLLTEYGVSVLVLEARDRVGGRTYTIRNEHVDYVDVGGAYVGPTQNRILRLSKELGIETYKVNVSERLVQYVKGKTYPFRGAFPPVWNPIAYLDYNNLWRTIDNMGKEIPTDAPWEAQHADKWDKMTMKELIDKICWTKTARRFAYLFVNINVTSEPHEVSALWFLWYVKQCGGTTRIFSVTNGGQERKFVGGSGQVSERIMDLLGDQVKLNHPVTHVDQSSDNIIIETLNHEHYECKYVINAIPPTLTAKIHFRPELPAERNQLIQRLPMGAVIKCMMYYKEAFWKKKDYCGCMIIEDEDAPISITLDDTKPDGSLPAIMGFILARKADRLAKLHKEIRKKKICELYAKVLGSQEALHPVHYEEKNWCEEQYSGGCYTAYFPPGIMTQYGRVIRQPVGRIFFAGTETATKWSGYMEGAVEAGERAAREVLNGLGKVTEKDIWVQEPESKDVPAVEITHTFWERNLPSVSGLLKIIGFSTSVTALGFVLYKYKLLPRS

Homo sapiens = organism: Homo sapiens; assay: Selectivity index, ratio of IC50 for recombinant human MAO-A to IC50 for recombinant human MAO-B
[2] = molecular target: T2, Amine oxidase [flavin-containing] B (Homo sapiens, UniProt P27338); assay: Inhibition of recombinant human MAO-B expressed in Sf9 cells using benzylamine as substrate preincubated for 15 mins followed by substrate addition for 60 mins by Luminex assay; format: cell-based
T2 sequence (P27338 whole entry): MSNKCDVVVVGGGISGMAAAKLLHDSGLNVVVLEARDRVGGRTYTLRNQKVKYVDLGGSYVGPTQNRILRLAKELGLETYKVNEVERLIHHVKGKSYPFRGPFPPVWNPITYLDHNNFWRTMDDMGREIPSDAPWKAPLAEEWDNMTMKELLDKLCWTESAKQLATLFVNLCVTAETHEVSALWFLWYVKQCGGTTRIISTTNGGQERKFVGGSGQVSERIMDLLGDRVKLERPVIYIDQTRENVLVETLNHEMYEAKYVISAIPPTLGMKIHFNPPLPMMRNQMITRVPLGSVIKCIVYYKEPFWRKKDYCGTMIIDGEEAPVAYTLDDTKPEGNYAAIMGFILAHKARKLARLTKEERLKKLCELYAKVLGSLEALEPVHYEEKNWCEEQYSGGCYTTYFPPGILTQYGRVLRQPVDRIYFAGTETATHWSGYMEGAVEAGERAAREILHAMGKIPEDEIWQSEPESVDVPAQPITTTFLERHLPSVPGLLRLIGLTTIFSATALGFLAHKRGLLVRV

IC50 [1] [µM]	Ratio IC50 (Homo sapiens)	IC50 [2] [µM]	SMILES
12	427	0.028	C[C@H](NCc1ccc(OCc2cccc(F)c2)cc1Cl)C(N)=O
–	–	> 10	C#CCN(C)C(=O)[C@H](C)NCc1ccc(OCc2cccc(F)c2)cc1
2.13	61	0.035	NC(=O)[C@@H]1CCN1Cc1ccc(OCc2cccc(F)c2)cc1Cl
14.5	14	1.07	NC(=O)[C@@H]1CC(F)(F)CN1Cc1ccc(OCc2cccc(F)c2)cc1
5.59	82	0.068	C#CCN(Cc1ccc(OCc2cccc(F)c2)cc1Cl)[C@@H](C)C(N)=O
7.79	15	0.53	C#CCN(Cc1ccc(OCc2cccc(F)c2)cc1)[C@@H](C)C(N)=O
8.65	34	0.258	Cc1cc(OCc2cccc(F)c2)ccc1CN1CC[C@H]1C(N)=O
26.8	1280	0.021	NC(=O)[C@@H]1CCN1Cc1ccc(OCc2cccc(F)c2)cc1
> 10	> 163	0.061	C[C@H](NCc1ccc(OCc2cccc(F)c2)cc1F)C(N)=O
–	–	5.41	NC(=O)[C@@H]1COCCN1Cc1ccc(OCc2cccc(F)c2)cc1
57.6	20	2.87	NC(=O)[C@@H]1COCCN1Cc1ccc(OCc2cccc(F)c2)cc1F
75.2	45	1.66	C[C@H](NCc1ccc(OCc2cccc(F)c2)cc1C1CC1)C(N)=O
> 10	> 7	1.42	NC(=O)C1CN(Cc2ccc(OCc3cccc(F)c3)cc2)C1
18.6	715	0.026	NC(=O)[C@@H]1CCN1Cc1ccc(OCc2cccc(F)c2)cc1F
6.4	20	0.32	C#CCN(Cc1ccc(OCc2cccc(F)c2)cc1C)[C@@H](C)C(N)=O
–	–	6.35	CC1(C)C[C@@H](C(N)=O)N(Cc2ccc(OCc3cccc(F)c3)cc2F)C1
–	–	> 10	C[C@H](NCc1ccc(OCc2cccc(F)c2)cc1)C(=O)NCCN1CCOCC1
34.2	168	0.204	NC(=O)[C@@H]1CCCN1Cc1ccc(OCc2cccc(F)c2)cc1
17.5	12	1.42	CC1(C)C[C@@H](C(N)=O)N(Cc2ccc(OCc3cccc(F)c3)cc2)C1
18	391	0.046	NC(=O)C1CCN1Cc1ccc(OCc2cccc(F)c2)cc1 (racemic)
8.71	94	0.093	C#CCN(Cc1ccc(OCc2cccc(F)c2)cc1F)[C@@H](C)C(N)=O
> 10	> 140	0.069	Cc1cc(OCc2cccc(F)c2)ccc1CN[C@@H](C)C(N)=O
